Reference: patent US11034702B2, “Thienoisoquinolines and their derivatives for the treatment of cancer” (VALORBEC, SOCIÉTÉ EN COMMANDITE, priority 2016, dated 2021)

Test system: A549 spheroids
Assay: A549 multicellular tumour spheroids
Format: cell-based, human
Method: FIG. 5A) is a series of images of HeLa multicellular tumor spheroids (spheroids) treated with control (500 nM C87), empty nanoparticles, 500 nM C75 and 250 nM C75-loaded nanoparticles over 3 days. […] The scale bar for all images is 100 μm. FIG. 5B) is a series images of HeLa spheroids after three days of treatment with control (500 nM C87) or 500 nM C75. The spheroids were stained for fluorescein diacetate (to detect live cells) and propidium iodide (to detect dead cells). […] The scale bar for all images is 100 μm. FIG. 5C) is a series of images of HCT116 spheroids treated with control (1 μM C87), 500 nM C75, 1 μM C75 and 500 nM C75-loaded nanoparticles over 5 days. […] The borders of the spheroids treated with 1 μM C75 or with 500 nM C75-loaded nanoparticles became highly irregular, indicative of loss of spheroid integrity. FIG. 5D) is a series images of HCT116 spheroids after six days of treatment with control (1 μM C87) or 1 μM C75. The spheroids were stained for fluorescein diacetate (live cells) and propidium iodide (dead cells). […] FIG. 5E) is a line graph showing the growth in surface area (%) of HCT116 spheroids treated with control (1 μM C87), 500 nM C75 and 1 μM C75 after six days. FIG. 5F) is a series of images of A549 spheroids treated with control (750 nM C87), 500 nM C75, 1 μM C75 and 500 nM C75-loaded nanoparticles over 5 days. […] The scale bar for all images is 100 μm. […]

`COc1ccc(S(=O)(=O)N2Cc3ccccc3-c3sc(Br)cc32)cc1` [Compound C75] was tested, and the “effect on growth of A549 spheroids” value (500 nM or 1 μM C75, 500 nM C75-loaded nanoparticles, over 5 days) was “regress the growth” and the “live/dead staining of spheroids (fluorescein diacetate / propidium iodide)” value (A549 spheroids, 1 μM, six days) was “fewer live cells”.
